#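 Dose response: 5 concentrations. Exposure: 48 h. Format: 96-well plates. Endpoint: linear interpolation; highest concentration if not reached. GI50 marks 50% less growth. TGI: concentration producing complete growth inhibition.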
# How the values were obtained:
# Assay in all cases: growth of human tumour cells (NCI), 48 h
# [1] = test system: SK-MEL-5 melanoma
# [2] = test system: SF-268 CNS
# [3] = test system: SNB-19 CNS
# [4] = test system: SF-295 CNS
# [5] = test system: HCT-15 colon
# [6] = test system: MALME-3M melanoma
# [7] = test system: SK-OV-3 ovarian
# [8] = test system: SK-MEL-2 melanoma
# [9] = test system: RPMI-8226 leukemia
# [10] = test system: ACHN renal
# [11] = test system: UO-31 renal
# [12] = test system: HOP-92 NSCLC
# [13] = test system: NCI-H23 lung
# [14] = test system: MCF7 breast
# [15] = test system: K-562 leukemia
# [16] = test system: SNB-75 CNS
# [17] = test system: MDA-N
# [18] = test system: HCT-116 colon
# [19] = test system: DU-145 prostate
# [20] = test system: M14 melanoma
# [21] = test system: CCRF-CEM leukemia
# [22] = test system: IGROV1 ovarian
# [23] = test system: SN12C renal
# [24] = test system: A498 renal
# [25] = test system: MDA-MB-435
# [26] = test system: TK-10 renal
# [27] = test system: NCI/ADR-RES ovarian
# [28] = test system: EKVX NSCLC
# [29] = test system: UACC-62 melanoma
# [30] = test system: U251 CNS
# [31] = test system: PC-3 prostate
# [32] = test system: OVCAR-4 ovarian
# [33] = test system: HT29 colon
# [34] = test system: HOP-62 NSCLC
# [35] = test system: A549 NSCLC
# [36] = test system: KM12 colon
# [37] = test system: NCI-H226 lung
# [38] = test system: HS 578T breast
# [39] = test system: MDA-MB-231 breast
# [40] = test system: COLO 205 colon
# [41] = test system: MOLT-4 leukemia
# [42] = test system: SK-MEL-28 melanoma
# [43] = test system: SW-620 colon
# [44] = test system: LOX IMVI melanoma
# [45] = test system: OVCAR-8 ovarian
# [46] = test system: OVCAR-5 ovarian
# [47] = test system: UACC-257 melanoma
# [48] = test system: OVCAR-3 ovarian
# [49] = test system: 786-0 renal
# [50] = test system: NCI-H522 lung
# [51] = test system: HL-60(TB) leukemia
# [52] = test system: SR leukemia
# [53] = test system: T-47D breast
# [54] = test system: BT-549 breast
# [55] = test system: CAKI-1 renal
# [56] = test system: NCI-H460 lung
# [57] = test system: HCC-2998 colon
# [58] = test system: RXF 393 renal
structure (smiles),measurement,setting,value
O/N=C/[C@H]1COC2(CCCCC2)O1,TGI,[1],> 100 µM
same,TGI,[2],> 100 µM
same,TGI,[3],> 100 µM
same,TGI,[4],> 100 µM
same,TGI,[5],> 100 µM
same,TGI,[6],> 100 µM
same,TGI,[7],> 100 µM
same,TGI,[8],> 100 µM
same,TGI,[9],> 100 µM
same,TGI,[10],> 100 µM
same,TGI,[11],> 100 µM
same,TGI,[12],> 100 µM
same,TGI,[13],> 100 µM
same,TGI,[14],> 100 µM
same,TGI,[15],> 100 µM
same,TGI,[16],> 100 µM
same,TGI,[17],> 100 µM
same,TGI,[18],> 100 µM
same,TGI,[19],> 100 µM
same,TGI,[20],> 100 µM
same,TGI,[21],> 100 µM
same,TGI,[22],> 100 µM
same,TGI,[23],> 100 µM
same,TGI,[24],> 100 µM
same,TGI,[25],> 100 µM
same,TGI,[26],> 100 µM
same,TGI,[27],> 100 µM
same,TGI,[28],> 100 µM
same,TGI,[29],> 100 µM
same,TGI,[30],> 100 µM
same,TGI,[31],> 100 µM
same,TGI,[32],> 100 µM
same,TGI,[33],> 100 µM
same,TGI,[34],> 100 µM
same,TGI,[35],> 100 µM
same,TGI,[36],> 100 µM
same,TGI,[37],> 100 µM
same,TGI,[38],> 100 µM
same,TGI,[39],> 100 µM
same,TGI,[40],> 100 µM
same,TGI,[41],> 100 µM
same,TGI,[42],> 100 µM
same,TGI,[43],> 100 µM
same,TGI,[44],> 100 µM
same,TGI,[45],> 100 µM
same,TGI,[46],> 100 µM
same,TGI,[47],> 100 µM
same,TGI,[48],> 100 µM
same,TGI,[49],> 100 µM
O=C1C2=C(Nc3cc([N+](=O)[O-])ccc3N2)OC1c1ccc(C2OC3=C(Nc4ccc([N+](=O)[O-])cc4N3)C2=O)cc1 (stereo unspecified),GI50,[1],38.9 µM
same,GI50,[2],64.9 µM
same,GI50,[4],23.3 µM
same,TGI,[4],77.3 µM
same,GI50,[50],6.12 µM
same,GI50,[51],0.184 µM
same,TGI,[51],1.09 µM
same,GI50,[8],63.3 µM
same,GI50,[9],53.6 µM
same,GI50,[14],53.3 µM
same,GI50,[15],19.1 µM
same,GI50,[17],42.8 µM
same,GI50,[18],79.9 µM
same,GI50,[25],22.1 µM
same,TGI,[25],53.4 µM
same,GI50,[29],30.4 µM
same,GI50,[52],19.4 µM
same,GI50,[33],98.9 µM
same,GI50,[53],48 µM
same,GI50,[36],26.1 µM
same,GI50,[40],19.7 µM
same,TGI,[40],45.1 µM
same,GI50,[41],22 µM
same,GI50,[42],41.8 µM
same,GI50,[47],28 µM
same,TGI,[47],96.8 µM
same,GI50,[48],37.5 µM
C[C@@](Br)(C(=O)O)[C@H](Br)C(=O)O,TGI,[54],> 100 µM
same,TGI,[1],> 100 µM
same,TGI,[2],> 100 µM
same,TGI,[3],> 100 µM
same,TGI,[4],> 100 µM
same,TGI,[55],> 100 µM
same,TGI,[5],> 100 µM
same,TGI,[6],> 100 µM
same,TGI,[51],> 100 µM
same,TGI,[7],> 100 µM
same,TGI,[9],> 100 µM
same,TGI,[10],> 100 µM
same,TGI,[11],> 100 µM
same,TGI,[12],> 100 µM
same,TGI,[13],> 100 µM
same,TGI,[14],> 100 µM
same,TGI,[15],> 100 µM
same,TGI,[16],> 100 µM
same,TGI,[17],> 100 µM
same,TGI,[56],> 100 µM
same,TGI,[18],> 100 µM
same,TGI,[19],> 100 µM
same,TGI,[20],> 100 µM
same,TGI,[21],> 100 µM
same,TGI,[22],> 100 µM
same,TGI,[23],> 100 µM
same,TGI,[24],> 100 µM
same,TGI,[25],> 100 µM
same,TGI,[26],> 100 µM
same,TGI,[27],> 100 µM
same,TGI,[28],> 100 µM
same,TGI,[29],> 100 µM
same,TGI,[30],> 100 µM
same,TGI,[31],> 100 µM
same,TGI,[32],> 100 µM
same,TGI,[57],> 100 µM
same,TGI,[33],> 100 µM
same,TGI,[34],> 100 µM
same,TGI,[35],> 100 µM
same,TGI,[53],> 100 µM
same,TGI,[36],> 100 µM
same,TGI,[37],> 100 µM
same,TGI,[39],> 100 µM
same,TGI,[40],> 100 µM
same,TGI,[41],> 100 µM
same,TGI,[42],> 100 µM
same,TGI,[43],> 100 µM
same,TGI,[44],> 100 µM
same,TGI,[45],> 100 µM
same,TGI,[46],> 100 µM
same,TGI,[47],> 100 µM
same,TGI,[58],> 100 µM
same,TGI,[48],> 100 µM
same,TGI,[49],> 100 µM
COc1ccc(-c2oc3cc(OC)ccc3c(=O)c2O)cc1,TGI,[54],4.23 µM
same,TGI,[1],> 100 µM
same,TGI,[3],> 100 µM
same,TGI,[4],> 100 µM
same,TGI,[55],8.33 µM
same,TGI,[5],> 100 µM
same,TGI,[6],> 31.6 µM
same,TGI,[9],> 31.6 µM
same,TGI,[12],> 31.6 µM
same,TGI,[14],> 31.6 µM
same,TGI,[17],> 100 µM
same,TGI,[56],> 100 µM
same,TGI,[18],> 100 µM
same,TGI,[20],> 31.6 µM
same,TGI,[22],> 31.6 µM
same,TGI,[24],> 100 µM
same,TGI,[25],> 31.6 µM
same,TGI,[26],> 100 µM
same,TGI,[28],> 100 µM
same,TGI,[30],> 100 µM
same,TGI,[31],> 100 µM
same,TGI,[32],> 31.6 µM
same,TGI,[33],> 100 µM
same,TGI,[38],5.53 µM
same,TGI,[39],> 100 µM
same,TGI,[40],> 100 µM
same,TGI,[42],> 31.6 µM
same,TGI,[44],> 100 µM
same,TGI,[47],> 100 µM
same,TGI,[58],42.6 µM
same,TGI,[49],> 100 µM

# Source: PubChem BioAssay (NCI)
